The text below walks through data of patent US20030225152A1, “3-(Arylamino)methylene-1, 3-dihydro-2h-indol-2-ones as kinase inhibitors” (priority 2001, published 2003).

The IC50 is the concentration that gives 50% inhibition. Usually inhibition stands for the relative decrease from the control value, in per cent.

For test [1], the target named is T1, cytoplasmic domain of the human VEGF receptor (VEGFR-2) (Homo sapiens, UniProt P35968).
T1 construct: The cytoplasmic domain of the human VEGF receptor (VEGFR-2) was expressed as a Histidine-tagged fusion protein; Histidine tag
T1 sequence (P35968 786-1356): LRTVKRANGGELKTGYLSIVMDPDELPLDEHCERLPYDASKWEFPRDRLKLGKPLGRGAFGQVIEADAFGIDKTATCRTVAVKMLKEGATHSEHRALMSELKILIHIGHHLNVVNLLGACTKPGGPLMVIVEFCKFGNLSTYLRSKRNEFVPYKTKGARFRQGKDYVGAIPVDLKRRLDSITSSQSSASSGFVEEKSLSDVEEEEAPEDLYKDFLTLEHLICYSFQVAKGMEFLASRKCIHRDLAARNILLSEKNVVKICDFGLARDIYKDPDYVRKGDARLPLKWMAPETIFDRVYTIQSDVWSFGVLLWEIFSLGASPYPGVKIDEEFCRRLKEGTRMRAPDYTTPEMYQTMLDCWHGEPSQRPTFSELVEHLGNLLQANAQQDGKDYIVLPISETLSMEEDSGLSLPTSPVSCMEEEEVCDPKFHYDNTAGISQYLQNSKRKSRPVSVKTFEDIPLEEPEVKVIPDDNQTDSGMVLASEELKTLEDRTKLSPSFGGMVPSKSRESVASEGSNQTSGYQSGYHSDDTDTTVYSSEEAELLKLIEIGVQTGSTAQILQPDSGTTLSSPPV
Description: KDR Assay. The note with it: His-VEGFR-2; 3.6 μM ATP. Type of test: biochemical. Put shortly: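 IC50 taken from blank-corrected OD492 curves of an anti-phosphotyrosine peroxidase ELISA. Reaction: 10 min, 25 °C, 3.6 μM ATP, 50 mM Hepes pH 7.4 with 20 mM MgCl2, 0.1 mM MnCl2 and 5% DMSO, on poly-Glu-Tyr-coated wells, started with insect-cell-expressed His-VEGFR-2 cytoplasmic domain.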

The subject of test [2] is VEGF induced increases in intracellular calcium levels in HUVEC (human umbilical vein endothelial cells). Description: VEGF Stimulated Ca++ Signal in vitro (FLIPR). The note with it: VEGF 5 ng/mL; for IC50: 0.01 to 10.0 μM. Type of test: cell-based. Put shortly: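 IC50 values derive from % inhibition of the VEGF (5 ng/mL) calcium response, taken as max-min fluorescence at 516 nm in Fluo-4-loaded HUVEC. Compounds (0.1% DMSO final) were added 30 min before stimulation, at 10 μM or across 0.01–10.0 μM.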

For the compound `O=C1Nc2ccc(F)cc2C1=CNc1cccc(O)c1` [Example 177, 5-Fluoro-3-[(3-hydroxy-phenylamino)-methylene]-1,3-dihydro-indol-2-one], the IC50 in test [1] was 750 nM; in test [2], 740 nM; in test [2] (Homo sapiens) it was not above 1000 nM. In addition, the inhibition at 10 µM in test [2] (Homo sapiens) is 98.2%.

With `O=C1Nc2ccc(F)cc2C1=CNc1ccc(CO)cc1` [Example 178, 5-Fluoro-3-[(4-hydroxymethyl-phenylamino)-methylene]-1,3-dihydro-indol-2-one], the IC50 in test [1] was determined as 530 nM; in test [2] (Homo sapiens) it was 1060 nM. Also, the inhibition at 10 µM in test [2] (Homo sapiens) was 98.8%.

As to `Nc1ccc(NC=C2C(=O)Nc3ccccc32)cc1` [Example 180, 3-[(4-Amino-phenylamino)-methylene]-1,3-dihydro-indol-2-one], the figures for the IC50 in test [1] and in test [2] (Homo sapiens) were 440 nM and 1030 nM, respectively. Besides, the inhibition at 10 µM in test [2] (Homo sapiens) stood at 98.3%.

As for `CC(O)c1cccc(NC=C2C(=O)Nc3ccccc32)c1` (stereo not drawn) [Example 182, 3-{[3-(1-Hydroxy-ethyl)-phenylamino]-methylene}-1,3-dihydro-indol-2-one], in test [1], the 50% inhibitory concentration (IC50) is 1650 nM. Further, in test [2] (Homo sapiens), the inhibition at 10 µM worked out at 99.3% and the IC50 worked out at 950 nM.

As to `Cc1cccc2c1C(=CNc1cccc(C(C)O)c1)C(=O)N2` (stereo not drawn) [Example 183, 3-{[3-(1-Hydroxy-ethyl)-phenylamino]-methylene}-4-methyl-1,3-dihydro-indol-2-one], the results for the concentration for half-maximal inhibition (IC50) in test [1], in test [2] and in test [2] (Homo sapiens) were 520 nM, 750 nM and not above 1000 nM, respectively. Besides, in test [2] (Homo sapiens), the inhibition at 10 µM was 98.9%.

`O=C1Nc2ccccc2C1=CNc1cccc(CO)c1` [Example 184, 3-[(3-Hydroxymethyl-phenylamino)-methylene]-1,3-dihydro-indol-2-one] displayed an IC50 in test [1] of 610 nM. In addition, in test [2] (Homo sapiens), the inhibition at 10 µM amounted to 98.2% and the IC50 is 1560 nM.

Take `Cc1cccc2c1C(=CNc1cccc(CO)c1)C(=O)N2` [Example 185, 3-[(3-Hydroxymethyl-phenylamino)-methylene]-4-methyl-1,3-dihydro-indol-2-one]: the IC50 was 330 nM in test [1], 870 nM in test [2] and not above 1000 nM in test [2] (Homo sapiens). In addition, the inhibition at 10 µM in test [2] (Homo sapiens) was 98.4%.

As for `CC(C)(C)OC(=O)Nc1ccc(NC=C2C(=O)Nc3ccccc32)cc1` [Example 186, {4-[(2-Oxo-1,2-dihydro-indol-3-ylidenemethyl)-amino]-phenyl}-carbamic acid tert-butyl ester], the midpoint of inhibition in test [1], the IC50, lay at 890 nM. For the same compound, in test [2] (Homo sapiens), the inhibition at 10 µM was 99% and the IC50 came to 1920 nM.

On to `Cc1cccc2c1C(=CNc1ccc(NC(=O)OC(C)(C)C)cc1)C(=O)N2` [Example 187, {4-[(4-Methyl-2-oxo-1,2-dihydro-indol-3-ylidenemethyl)-amino]-phenyl}-carbamic acid tert-butyl ester], for which half-maximal inhibition in test [1] (IC50) was put at 270 nM. Besides, in test [2] (Homo sapiens), the inhibition at 10 µM came to 96.8% and the IC50 stood at 1670 nM.

Turning to `CCN(CC)c1ccc(NC=C2C(=O)Nc3ccccc32)cc1` [Example 188, 3-[(4-Diethylamino-phenylamino)-methylene]-1,3-dihydro-indol-2-one], the IC50 in test [1] is 180 nM; in test [2], 530 nM; in test [2] (Homo sapiens) it was not above 1000 nM. The inhibition at 10 µM in test [2] (Homo sapiens) turned out to be 98%.

The compound `CCN(CC)c1ccc(NC=C2C(=O)Nc3cccc(C)c32)cc1` [Example 189, 3-[(4-Diethylamino-phenylamino)-methylene]-4-methyl-1,3-dihydro-indol-2-one] came in with an IC50 in test [1] of 70 nM. Moreover, in test [2] (Homo sapiens), the inhibition at 10 µM is 98.2%.

As for `O=C1Nc2ccccc2C1=CNc1cccc(S(=O)(=O)N(CCO)CCO)c1` [Example 190, N,N-Bis-(2-hydroxy-ethyl)-3-[(2-oxo-1,2-dihydro-indol-3-ylidenemethyl)-amino]-benzenesulfonamide], the IC50 in test [1] worked out at 6960 nM; in test [2] (Homo sapiens), 9990 nM. The inhibition at 10 µM in test [2] (Homo sapiens) came to 54.1%.

As to `Cc1cccc2c1C(=CNc1cccc(S(=O)(=O)N(CCO)CCO)c1)C(=O)N2` [Example 191, N,N-Bis-(2-hydroxy-ethyl)-3-[(4-methyl-2-oxo-1,2-dihydro-indol-3-ylidenemethyl)-amino]-benzenesulfonamide], the IC50 in test [1] came to 700 nM; in test [2] (Homo sapiens), 2410 nM. In addition, in test [2] (Homo sapiens), the inhibition at 10 µM came out at 98.7%.

In test [1], `O=C1Nc2ccccc2C1=CNc1ccc(S(=O)(=O)NCCO)cc1` [Example 192, N-(2-Hydroxy-ethyl)-4-[(2-oxo-1,2-dihydro-indol-3-ylidenemethyl)-amino]-benzenesulfonamide] displayed an IC50 of 590 nM. Also, in test [2] (Homo sapiens), the inhibition at 10 µM is 98.7% and the IC50 was 1530 nM.

For `O=C1Nc2ccccc2C1=CNc1cccc(S(=O)(=O)NCCCO)c1` [Example 193, N-(3-Hydroxy-propyl)-3-[(2-oxo-1,2-dihydro-indol-3-ylidenemethyl)-amino]-benzenesulfonamide], the IC50 in test [1] is 2470 nM; in test [2] (Homo sapiens), 4770 nM. In addition, the inhibition at 10 µM in test [2] (Homo sapiens) stood at 81.5%.

`Cc1cccc2c1C(=CNc1cccc(S(=O)(=O)NCCCO)c1)C(=O)N2` [Example 194, N-(3-Hydroxy-propyl)-3-[(4-methyl-2-oxo-1,2-dihydro-indol-3-ylidenemethyl)-amino]-benzenesulfonamide] yielded an IC50 in test [1] of 660 nM. Further, in test [2] (Homo sapiens), the inhibition at 10 µM was determined as 96.9% and the IC50 amounted to 2670 nM.

For the compound `O=C1Nc2ccccc2C1=CNc1ccc(N2CCOCC2)c(C(=O)O)c1` [Example 195, 2-Morpholin-4-yl-5-[(2-oxo-1,2-dihydro-indol-3-ylidenemethyl)-amino]-benzoic acid], it took 960 nM to reach half-maximal inhibition in test [1] (IC50). For the same compound, in test [2] (Homo sapiens), the inhibition at 10 µM amounted to 91.1% and the IC50 turned out to be 4670 nM.

For the compound `Cc1cccc2c1C(=CNc1ccc(C(=S)N3CCOCC3)cc1)C(=O)N2` [Example 196, 4-Methyl-3-{[4-(1-morpholin-4-yl-methanethiol)-phenylamino]-methylene}-1,3-dihydro-indol-2-one], the IC50 in test [1] is 50 nM; in test [2] it was 770 nM; in test [2] (Homo sapiens) it was not above 1000 nM. The inhibition at 10 µM in test [2] (Homo sapiens) was found to be 73.1%.

Consider `Cc1cccc2c1C(=CNc1ccc(S(=O)(=O)NCCO)cc1)C(=O)N2` [Example 197, N-(2-Hydroxy-ethyl)-4-[(4-methyl-2-oxo-1,2-dihydro-indol-3-ylidenemethyl)-amino]-benzenesulfonamide], for which, in test [1], it took 90 nM to reach half-maximal inhibition (IC50). For the same compound, the inhibition at 10 µM in test [2] (Homo sapiens) came out at 98.1%.

In test [1], `O=C1Nc2ccccc2C1=CNc1ccc(OCCCCl)cc1` [Example 198, 3-{[4-(3-Chloro-propoxy)-phenylamino]-methylene}-1,3-dihydro-indol-2-one] had an IC50 of 470 nM. Besides, in test [2] (Homo sapiens), the inhibition at 10 µM worked out at 56.3% and the IC50 came out at 7920 nM.

Turning to `O=C1Nc2ccccc2C1=CNc1ccc(OCCCCCl)cc1` [Example 199, 3-{[4-(4-Chloro-butoxy)-phenylamino]-methylene}-1,3-dihydro-indol-2-one], in test [1], half-maximal inhibition (IC50) required 290 nM. Besides, the inhibition at 10 µM in test [2] (Homo sapiens) was determined as 32.4%.

On to `O=C1Nc2ccccc2C1=CNc1ccc(OCCCI)cc1` [Example 200, 3-{[4-(3-Iodo-propoxy)-phenylamino]-methylene}-1,3-dihydro-indol-2-one], for which the IC50 in test [1] stood at 740 nM. In test [2] (Homo sapiens), the inhibition at 10 µM turned out to be 75.2% and the IC50 was found to be 3480 nM.

Compound `Cc1cccc2c1C(=CNc1cccc(N)c1)C(=O)N2` [Example 210, 3-[(3-Amino-phenylamino)-methylene]-4-methyl-1,3-dihydro-indol-2-one] had a concentration for half-maximal inhibition (IC50) in test [1] of 170 nM. Moreover, in test [2] (Homo sapiens), the inhibition at 10 µM was 97.4%.

Consider `Cc1ccc(NC=C2C(=O)Nc3ccccc32)cc1N` [Example 212, 3-[(3-Amino-4-methyl-phenylamino)-methylene]-1,3-dihydro-indol-2-one], for which the figures for the IC50 in test [1], in test [2] and in test [2] (Homo sapiens) were 500 nM, 820 nM and not above 1000 nM, respectively. Besides, the inhibition at 10 µM in test [2] (Homo sapiens) was determined as 96.5%.

With `Cc1ccc(NC=C2C(=O)Nc3cccc(C)c32)cc1N` [Example 213, 3-[(3-Amino-4-methyl-phenylamino)-methylene]-4-methyl-1,3-dihydro-indol-2-one], the IC50 in test [1] is 150 nM; in test [2], 650 nM; in test [2] (Homo sapiens) it was not above 1000 nM. Besides, the inhibition at 10 µM in test [2] (Homo sapiens) was 95%.

Consider `CN1CCN(CCCOc2ccc(NC=C3C(=O)Nc4ccccc43)cc2)CC1` [Example 217, 3-({4-[3-(4-Methyl-piperazin-1-yl)-propoxy]-phenylamino}-methylene)-1,3-dihydro-indol-2-one], for which the IC50 in test [1] is 280 nM; in test [2], 860 nM; in test [2] (Homo sapiens), not above 1000 nM. In addition, in test [2] (Homo sapiens), the inhibition at 10 µM is 97.7%.

As to `COc1ccc(NC=C2C(=O)Nc3ccc(F)cc32)cc1` [Example 222, 5-Fluoro-3-[(4-methoxy-phenylamino)-methylene]-1,3-dihydro-indol-2-one], the IC50 in test [1] is 470 nM. Moreover, the inhibition at 10 µM in test [2] (Homo sapiens) stood at 48.8%.

`O=C(O)Cc1ccc(NC=C2C(=O)Nc3ccccc32)cc1` [Example 224, 3-[(4-Carboxymethylphenylamino)-methylene]-1,3-dihydro-indol-2-one]: in test [1], the IC50 came out at 2270 nM. In test [2] (Homo sapiens), the inhibition at 10 µM was determined as 56.2% and the IC50 is 6310 nM.
